For series [1] the following is noted: from treatment for Parkinson's disease in Japanese Patent Laid-Open No. 59-25323; cited from earlier work.
Series [2] in a line: Acute toxicity of BH4 dihydrochloride in rat, oral administration. The class given is in vivo. An excerpt:
The active ingredient used in the present invention is most preferably (6R)-L-erythro-5,6,7,8-tetrahydrobiopterin (BH4) or a salt thereof. However, analogues thereof such as (6R, S)-5,6,7,8-tetrahydrobiopterin, 1′,2′-diacetyl-5,6,7,8-tetrahydrobiopterin, sepiapterin, 6-methyl-5,6,7,8-tetrahydropterin, 6-hydroxymethyl-5,6,7,8-tetrahydropterin, 6-phenyl-5,6,7,8-tetrahydropterin, or a salt thereof, may also be used. However, needless to say, BH4 that is a natural substance existing in an organism is preferable. […] In addition, as is clear from the description of a treatment for Parkinson's disease in Japanese Patent Laid-Open No. 59-25323, the toxicity of (6R, S)-5,6,7,8-tetrahydrobiopterin, that is, non-optically pure substance, is weak. Accordingly, this compound can also be used for the treatment in the present invention. Compounds represented by the formula (I) other than the above described compounds have almost no acute toxicity.

The subject of series [3] is NO from aortic endothelium of ApoE-KO/eNOS-Tg mice. Kind of series: Production of NO in excised aorta (DAF-2 DA fluorescence, acetylcholine stimulated). The class given is in vivo, mouse. The conditions noted are these: 12-week-old mice, high cholesterol diet for 8 weeks, BH4 administered vs not administered; FIG. 5; p<0.01. The text has this:
The aorta containing the portion from the aortic arch to the bifurcation portion of the iliac artery was excised from each of 12-week-old mice (ApoE-KO/eNOS-Tg) fed on a high cholesterol diet for 8 weeks. Immediately thereafter, surrounding portions were eliminated in PBS with pH 7.4. The sample was mounted on a black dish filled with a phosphate buffer (pH 7.4) containing 1.5 mmol/L calcium chloride, and it was then placed in a light-shielding box to avoid interference of external light.
Diaminofluorescein-2 diacetate (DAF-2 DA) was added thereto to the final concentration of 10 μmol/L. Then, the sample was left at ambient temperature for 5 minutes, and thereafter, it was excited with 485 nm blue light. The fluorescence generated as a result of the reaction between DAF-2 DA and NO was detected, using a luminograph equipped with a band filter with a center of 532 nm, and measurement was carried out for 1 second at an intensity of wave length of 515 nm. To examine the production of NO from the aortic endothelium, the sample was left in 1 μmol/L acetylcholine solution for 5 minutes, and then the fluorescent image was measured. After completion of each experiment, in order to determine whether the measured sample was a plaque area or non-plaque area, the sample was stained with Sudan III and observed. […]

Another series has as its system ApoE-KO/eNOS-Tg mice. As to the kind of experiment: Sclerotic lesion area of aorta (Sudan III staining, image analysis) in mice fed high cholesterol diet. The class given is in vivo, mouse. The conditions noted are these: BH4 10 mg/kg/day added to high cholesterol diet, FIG. 3. The text has this:
37 mice (ApoE-KO/eNOS-Tg) produced in Example 10 were ablactated at the age of 4 weeks, and then fed on high cholesterol diet (1.25% cholesterol, 7.5% cacao butter, 7.5% casein, and 0.5% sodium cholate) for 12 weeks.
Thereafter, the 16-week-old mice were anesthetized with pentobarbital, and the aorta was perfused with a physiological saline solution containing 10 U/ml heparin. Thereafter, the aorta corresponding to the portion from the center of the left ventricle to the bifurcation portion of the iliac artery was excised and fixed with 4% paraformaldehyde overnight. Surrounding tissues were eliminated from the distal portion (from the aortic arch to the bifurcation portion of the iliac artery) of the excised aorta. The aorta was longitudinally opened and fixed on a dish coated with silicone, and then stained with Sudan III. The obtained light microscope image was analyzed using NIH 1.61 Imaging Software. The lesion formation area was expressed by lesion area/the total area of aorta. In the figure, * denotes p<0.0001 with respect to ApoE-KO male, and the cross denotes p<0.001 with respect to ApoE-KO female.
6 to 8 mice (ApoE-KO/eNOS-Tg) produced in Example 10 were used per group. BH4 non-administration groups were fed on the high cholesterol diet (refer to Example 10), and BH4 administration groups were fed on the high cholesterol diet to which BH4 was added at 10 mg/kg/day. […]

In series [4] the test system is superoxide in plaque area of aorta of ApoE-KO/eNOS-Tg mice. As to the kind of experiment: Production of superoxide in excised aorta (MCLA chemiluminescence). The conditions noted are these: BH4 added high cholesterol diet for 8 weeks, 12 weeks old mice; vs non-administration; FIG. 4; p<0.01. The class given is in vivo, mouse. The protocol: Groups were prepared, each of which consisted of 6 to 8 mice (12 weeks old, ApoE-KO/eNOS-Tg) fed on BH4 added or BH4 non-added high cholesterol diet for 8 weeks in the same manner as in Example 12. The aorta was excised from these mice, peripheral tissues were eliminated, and the remaining portion was mounted on a black silicone dish filled with PBS with pH 7.4. The sample was placed in a light-shielding box to avoid interference of external light, and thereafter, MCLA was added to the chamber to the final concentration of […]. Thereafter, light emission generated as a result of the reaction between MCLA (2-methyl-6-(4-methoxyphenyl)-3,7-dihydroimidazol[1,2-a]pyrazin-3-one-hydrochloride) and superoxide anion was measured for 5 minutes. This measurement was repeated 3 times.
The light emission data was served in a computer, and the obtained nonlinear gray scale images were converted into pseudocolor images. The intensity of chemiluminescence due to superoxide was analyzed using WinLight 32 software. The plaque area was defined as an area that was stained with Sudan III. Approximately 10 plaque areas and 10 non-plaque areas ([…]) were randomly selected from each mouse, followed by measurement. The background level was subtracted from each chemiluminescent signal intensity. […] The results are shown as relative values. […]

Take `C[C@H](O)[C@H](O)C1CNc2nc(N)[nH]c(=O)c2N1` (stereo partly drawn) [(6R, S)-5,6,7,8-tetrahydrobiopterin]: the toxicity result in series [1] is “weak”.
Consider `C[C@H](O)[C@H](O)[C@H]1CNc2[nH]c(N)nc(=O)c2N1.Cl.Cl` [BH4 dihydrochloride], for which, in series [2], the acute toxicity is ≥ 2 g/kg (body weight) and the “toxicity (in words)” value is listed as “almost no toxicity is found”.
Turning to `CC(O)C(O)C1CNc2nc(N)[nH]c(=O)c2N1` [BH4, (6R)-L-erythro-5,6,7,8-tetrahydrobiopterin], the “production of NO in non-plaque area” value in series [3] is “significantly increased”. Moreover, the arteriosclerosis entry in the series with ApoE-KO/eNOS-Tg mice is recorded as “suppressed”. Also, the “lesion area (lesion area/total area of aorta)” value in the series on ApoE-KO/eNOS-Tg mice (vs non-administration group, p<0.05 male, p<0.01 female) is “reduced”. In addition, the “production of superoxide in plaque area” value in series [4] is listed as “significantly reduced”.

The values are drawn from patent US20040198738A1, “Preventives or remedies for diseaes caused by enos expression” (priority 2002, published 2004).
